# What was measured:
# OtaS/OtaL ADP-Glc PPase [1] = target: T1, OtaS/OtaL ADP-Glc PPase (Ostreococcus tauri, UniProt A0A090M9E5+A0A096P9X2, A0A096P9X2:R476K/A0A090M9E5:K508R, form not given); test: ADP-[…]Glc formation, activation curve, Hill fit; assay type: biochemical; conditions: allosteric activator; 50 mM HEPPS pH 8.0, 10 mM MgCl2, 1 mM Glc1P, 2.5 mM ATP, 37°C, no Pi; read-out: A0.5
# T1 construct: gene OT_ostta07g03070; heterotetramer alpha2beta2, co-expressed from pMAB5/OtaS and pMAB6/OtaL in E. coli AC70R1-504; DEAE and Resource PHE purification, no tag mentioned
# OtaS/OtaL ADP-Glc PPase [2] = target: T2, OtaS/OtaL ADP-Glc PPase (Ostreococcus tauri, UniProt A0A090M9E5+A0A096P9X2, A0A096P9X2:R476K, form not given); test: ADP-[…]Glc formation, activation curve, Hill fit; assay type: biochemical; conditions: allosteric activator; 50 mM HEPPS pH 8.0, 10 mM MgCl2, 1 mM Glc1P, 2.5 mM ATP, 37°C, no Pi; read-out: A0.5
# T2 construct: gene OT_ostta07g03070; heterotetramer alpha2beta2, co-expressed from pMAB5/OtaS and pMAB6/OtaL in E. coli AC70R1-504; DEAE and Resource PHE purification, no tag mentioned
# [3] = target: T3, StuSK441A/OtaL hybrid heterotetramer (Solanum tuberosum; Ostreococcus tauri, UniProt A0A096P9X2+P23509, A0A096P9X2:R476K/P23509:K511A, form not given); test: ADP-[…]Glc formation, activation curve, Hill fit; assay type: biochemical; conditions: read-out: A0.5; allosteric activator; 50 mM HEPPS pH 8.0, 10 mM MgCl2, 1 mM Glc1P, 2.5 mM ATP, 2 mM DTT, 37°C, no Pi
# T3 construct: hybrid heterotetramer: potato tuber small subunit K441A co-expressed with O. tauri large subunit in E. coli AC70R1-504; purified
# [4] = target: T4, StuSK441A/OtaL hybrid heterotetramer (Solanum tuberosum; Ostreococcus tauri, UniProt A0A096P9X2+P23509, A0A096P9X2:L24M/P23509:K511A); test: ADP-[…]Glc formation, activation curve, Hill fit; assay type: biochemical; conditions: read-out: A0.5; allosteric activator; 50 mM HEPPS pH 8.0, 10 mM MgCl2, 1 mM Glc1P, 2.5 mM ATP, 2 mM DTT, 37°C, no Pi
# T4 construct: hybrid heterotetramer: potato tuber small subunit K441A co-expressed with O. tauri large subunit in E. coli AC70R1-504; purified
# OtaS/OtaL ADP-Glc PPase [5] = target: T5, OtaS/OtaL ADP-Glc PPase (Ostreococcus tauri, UniProt A0A090M9E5+A0A096P9X2, A0A096P9X2:L24M); test: ADP-[…]Glc formation, activation curve, Hill fit; assay type: biochemical; set-up: gene OT_ostta07g03070; heterotetramer alpha2beta2, co-expressed from pMAB5/OtaS and pMAB6/OtaL in E. coli AC70R1-504; DEAE and Resource PHE purification, no tag mentioned; conditions: allosteric activator; 50 mM HEPPS pH 8.0, 10 mM MgCl2, 1 mM Glc1P, 2.5 mM ATP, 37°C, no Pi; read-out: A0.5
# OtaS/OtaL ADP-Glc PPase [6] = target: T6, OtaS/OtaL ADP-Glc PPase (Ostreococcus tauri, UniProt A0A090M9E5+A0A096P9X2, A0A096P9X2:L24M/A0A090M9E5:K508R); test: ADP-[…]Glc formation, activation curve, Hill fit; assay type: biochemical; set-up: gene OT_ostta07g03070; heterotetramer alpha2beta2, co-expressed from pMAB5/OtaS and pMAB6/OtaL in E. coli AC70R1-504; DEAE and Resource PHE purification, no tag mentioned; conditions: allosteric activator; 50 mM HEPPS pH 8.0, 10 mM MgCl2, 1 mM Glc1P, 2.5 mM ATP, 37°C, no Pi; read-out: A0.5
# OtaS/OtaL ADP-Glc PPase [7] = target: T5, OtaS/OtaL ADP-Glc PPase; set-up: gene OT_ostta07g03070; conditions: read-out: I0.5; allosteric inhibitor; 3PGA present at its A0.5 (0.61 mM); 50 mM HEPPS pH 8.0, 10 mM MgCl2, 1 mM Glc1P, 2.5 mM ATP, 37°C
# Description: (§1) ADP-Glc PPase activity, inhibition curve, Hill fit on OtaS/OtaL ADP-Glc PPase
# OtaS/OtaL ADP-Glc PPase [8] = target: T6, OtaS/OtaL ADP-Glc PPase; set-up: gene OT_ostta07g03070; conditions: read-out: I0.5; allosteric inhibitor; 3PGA present at its A0.5 (1.6 mM); 50 mM HEPPS pH 8.0, 10 mM MgCl2, 1 mM Glc1P, 2.5 mM ATP, 37°C
# Description: as §1
# T5 sequence (A0A090M9E5 entry or part of it): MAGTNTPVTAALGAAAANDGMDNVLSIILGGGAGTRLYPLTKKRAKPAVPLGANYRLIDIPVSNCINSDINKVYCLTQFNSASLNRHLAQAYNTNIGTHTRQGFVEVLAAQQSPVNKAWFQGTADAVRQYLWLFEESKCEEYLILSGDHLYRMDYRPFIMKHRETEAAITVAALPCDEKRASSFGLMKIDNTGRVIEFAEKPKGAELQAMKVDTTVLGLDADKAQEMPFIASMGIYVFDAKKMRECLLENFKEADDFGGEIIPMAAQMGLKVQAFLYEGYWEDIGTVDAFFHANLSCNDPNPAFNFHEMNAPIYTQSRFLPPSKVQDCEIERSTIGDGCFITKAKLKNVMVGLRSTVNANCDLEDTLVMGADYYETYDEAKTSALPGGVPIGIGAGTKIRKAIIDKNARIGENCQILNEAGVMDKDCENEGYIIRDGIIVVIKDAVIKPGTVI
# T5 sequence (A0A096P9X2 entry or part of it L24M): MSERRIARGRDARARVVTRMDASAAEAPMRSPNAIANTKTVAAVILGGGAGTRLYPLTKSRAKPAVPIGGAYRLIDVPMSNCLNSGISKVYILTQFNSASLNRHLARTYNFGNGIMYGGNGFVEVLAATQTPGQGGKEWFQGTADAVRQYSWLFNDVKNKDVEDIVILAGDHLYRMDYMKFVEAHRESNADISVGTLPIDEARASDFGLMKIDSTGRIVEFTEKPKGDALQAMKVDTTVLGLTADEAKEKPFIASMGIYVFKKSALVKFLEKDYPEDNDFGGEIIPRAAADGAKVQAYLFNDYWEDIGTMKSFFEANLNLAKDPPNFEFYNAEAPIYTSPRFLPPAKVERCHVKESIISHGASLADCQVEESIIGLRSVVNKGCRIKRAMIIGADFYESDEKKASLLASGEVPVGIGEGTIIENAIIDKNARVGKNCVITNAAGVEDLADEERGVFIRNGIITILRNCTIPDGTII
# T6 sequence (A0A090M9E5 entry or part of it K508R): as the sequence (A0A090M9E5 entry or part of it) above, with K443R counted along it
# T6 sequence (A0A096P9X2 entry or part of it L24M): as the sequence (A0A096P9X2 entry or part of it L24M) above
# T4 sequence (A0A096P9X2 entry or part of it L24M): as above
# T4 sequence (P23509 73-521 K511A): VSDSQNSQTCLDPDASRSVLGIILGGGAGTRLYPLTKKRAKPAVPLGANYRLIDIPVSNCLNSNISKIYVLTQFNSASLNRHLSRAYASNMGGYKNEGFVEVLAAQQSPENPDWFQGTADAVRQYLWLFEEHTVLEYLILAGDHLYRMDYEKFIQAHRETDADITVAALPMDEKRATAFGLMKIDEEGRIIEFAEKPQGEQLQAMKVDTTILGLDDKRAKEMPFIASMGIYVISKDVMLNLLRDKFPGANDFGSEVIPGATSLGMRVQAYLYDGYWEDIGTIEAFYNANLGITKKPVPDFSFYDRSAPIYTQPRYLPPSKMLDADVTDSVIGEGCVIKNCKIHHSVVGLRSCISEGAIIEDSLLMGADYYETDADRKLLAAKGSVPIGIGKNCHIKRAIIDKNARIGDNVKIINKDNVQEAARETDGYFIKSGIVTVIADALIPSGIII
# T2 sequence (A0A096P9X2 entry or part of it R476K, form open): as the sequence (A0A096P9X2 entry or part of it L24M) above, with M1L, R453K counted along it
# T2 sequence (A0A090M9E5 entry or part of it, form open): as the sequence (A0A090M9E5 entry or part of it) above
# T1 sequence (A0A096P9X2 entry or part of it R476K, form open): as the sequence (A0A096P9X2 entry or part of it L24M) above, with M1L, R453K counted along it
# T1 sequence (A0A090M9E5 entry or part of it K508R, form open): as the sequence (A0A090M9E5 entry or part of it) above, with K443R counted along it
# T3 sequence (P23509 73-521 K511A, form open): as the sequence (P23509 73-521 K511A) above
# T3 sequence (A0A096P9X2 entry or part of it R476K, form open): as the sequence (A0A096P9X2 entry or part of it L24M) above, with M1L, R453K counted along it
EC50 (OtaS/OtaL ADP-Glc PPase [1]) [µM],EC50 (OtaS/OtaL ADP-Glc PPase [2]) [µM],EC50 [3] [µM],EC50 [4] [µM],EC50 (OtaS/OtaL ADP-Glc PPase [5]) [µM],EC50 (OtaS/OtaL ADP-Glc PPase [6]) [µM],IC50 (OtaS/OtaL ADP-Glc PPase [7]) [µM],IC50 (OtaS/OtaL ADP-Glc PPase [8]) [µM],SMILES
740 ± 80,190 ± 10,400 ± 20,1200 ± 100,610 ± 30,1600 ± 600,–,–,O=C(O)[C@H](O)COP(=O)(O)O [3PGA]
–,–,–,–,–,–,179 ± 4,1600 ± 200,O=P(O)(O)O [Pi]

# Reference: publication PMC6218581, “Resurrecting the Regulatory Properties of the Ostreococcus tauri ADP-Glucose Pyrophosphorylase Large Subunit” (Frontiers in Plant Science, 2018)
